From article PMC6018554, “2-[2-(4-(trifluoromethyl)phenylamino)thiazol-4-yl]acetic acid (Activator-3) is a potent activator of AMPK” (Scientific Reports, 2018)
pEC50: −log10 of the molar value.

Legend:
[1] = molecular target: T1, recombinant human AMPK α2β2γ2 (Homo sapiens, UniProt Q9UGJ0); test: In vitro AMP kinase assay (pACC ELISA), α2β2γ2; format: biochemical
T1 construct: purchased SignalChem; host or cells: baculovirus expression
From the text: (§1) Having observed the effect of Activator-3 on the activation of AMPK in cell based assays, we next examined whether Activator-3 could activate AMPK directly or not. […] The activity of recombinant human AMPK (α1β1γ1, α2β1γ1, α2β2γ2 and α2β2γ3) in the presence of vehicle was considered as 100%. The EC50 of Activator-3 for the activation of α1β1γ1, α2β1γ1 and α2β2γ2 isozymes were similar. However, the activity of Activator-3 against α2β2γ3 was marginally higher (Fig. 1C).
(§2) A high binding Enzyme Immuno Assay (EIA) 96-well plate (Sigma: Cat# CLS3590) was coated with Acetyl CoA Carboxylase 2 (ACC: 175–271 amino acids) peptide, a direct substrate for AMPK, 100 ng per well (1:1000 ratio, Cat# 12–491, Upstate biotechnology) and incubated overnight at 25 °C. Reaction mixture was incubated at 30 °C for 2 h and reaction was stopped by washing the plate with 0.05% Tween 20 followed by incubation with pACC primary antibody and rabbit secondary antibody as described in cell based ELISA section. Assay buffer is composed of 10 mM DTT, 100 mM magnesium acetate, 50 μM ATP and 10 mM HEPES.

[2] = test system: human recombinant AMPK isozymes; test: In vitro AMP kinase assays, isozymes taken together; format: biochemical
Protocol: as §2

[3] = molecular target: T2, recombinant human AMPK α2β2γ3 (Homo sapiens, UniProt Q9UGI9); test: In vitro AMP kinase assay (pACC ELISA), α2β2γ3; format: biochemical
T2 construct: purchased SignalChem; host or cells: baculovirus expression
T2 sequence (Q9UGI9 whole entry): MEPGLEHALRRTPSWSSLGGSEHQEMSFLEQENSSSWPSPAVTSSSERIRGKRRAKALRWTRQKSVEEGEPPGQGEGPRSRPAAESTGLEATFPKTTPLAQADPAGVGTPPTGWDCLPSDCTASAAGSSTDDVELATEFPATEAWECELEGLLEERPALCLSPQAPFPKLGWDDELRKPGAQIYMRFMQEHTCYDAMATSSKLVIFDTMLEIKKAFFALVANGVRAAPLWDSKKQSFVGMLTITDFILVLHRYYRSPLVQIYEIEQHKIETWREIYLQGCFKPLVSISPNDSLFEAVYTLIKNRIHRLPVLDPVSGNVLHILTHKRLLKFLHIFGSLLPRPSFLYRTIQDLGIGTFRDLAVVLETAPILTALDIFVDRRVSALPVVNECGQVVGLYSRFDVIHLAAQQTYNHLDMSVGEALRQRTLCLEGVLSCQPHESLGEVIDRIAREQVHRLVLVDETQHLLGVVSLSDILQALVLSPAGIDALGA
T2 sequence (P54646 whole entry partner): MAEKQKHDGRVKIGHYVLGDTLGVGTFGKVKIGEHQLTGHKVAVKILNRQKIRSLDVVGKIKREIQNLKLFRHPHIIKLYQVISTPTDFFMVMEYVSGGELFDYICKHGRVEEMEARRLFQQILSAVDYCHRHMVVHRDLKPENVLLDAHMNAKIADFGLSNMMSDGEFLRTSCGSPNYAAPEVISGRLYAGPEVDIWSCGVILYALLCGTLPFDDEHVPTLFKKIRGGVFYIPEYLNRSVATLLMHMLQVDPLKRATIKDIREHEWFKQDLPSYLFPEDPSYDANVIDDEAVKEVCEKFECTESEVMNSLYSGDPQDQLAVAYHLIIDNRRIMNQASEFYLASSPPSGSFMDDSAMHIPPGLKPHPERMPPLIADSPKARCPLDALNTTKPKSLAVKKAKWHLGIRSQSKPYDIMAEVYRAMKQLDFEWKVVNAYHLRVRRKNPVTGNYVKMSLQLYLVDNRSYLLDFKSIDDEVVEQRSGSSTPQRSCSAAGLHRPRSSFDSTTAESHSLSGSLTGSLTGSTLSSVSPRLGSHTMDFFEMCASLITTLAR
T2 sequence (O43741 whole entry partner): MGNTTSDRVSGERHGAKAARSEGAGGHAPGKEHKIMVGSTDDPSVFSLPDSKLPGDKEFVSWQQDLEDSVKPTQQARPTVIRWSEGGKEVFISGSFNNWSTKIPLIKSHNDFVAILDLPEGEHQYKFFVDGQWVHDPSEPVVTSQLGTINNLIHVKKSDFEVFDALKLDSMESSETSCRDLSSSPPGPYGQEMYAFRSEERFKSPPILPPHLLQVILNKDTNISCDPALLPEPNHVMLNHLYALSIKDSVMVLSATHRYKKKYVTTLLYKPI
From the text: as §1, §2

LRRK2 = molecular target: T3, LRRK2 (Homo sapiens, UniProt Q5S007); test: Cell-free kinase panel (Kinexus); format: biochemical; settings: 10 µM
T3 construct: purchased Kinexus, Canada (screening service)
Protocol: (§3) To determine whether Activator-3 affects the activity of any other protein kinases, we screened it in cell-free assays against a panel of 100 protein kinases (Kinexus, Canada). […] Three kinases, DDR1 (−79%), SRC (−71%) and ALK5 (−61%) were inhibited by Activator-3 by more than 50% at 10 µM.

PAK1 = molecular target: T4, PAK1 (Homo sapiens, UniProt Q13153); test: Cell-free kinase panel (Kinexus); format: biochemical; settings: 10 µM
T4 construct: purchased Kinexus, Canada (screening service)
Protocol: as §3

ALK5 = molecular target: T5, ALK5 (Homo sapiens, UniProt P36897); test: Cell-free kinase panel (Kinexus); format: biochemical; settings: 10 µM
T5 construct: purchased Kinexus, Canada (screening service)
T5 sequence (P36897 34-503, species assumed): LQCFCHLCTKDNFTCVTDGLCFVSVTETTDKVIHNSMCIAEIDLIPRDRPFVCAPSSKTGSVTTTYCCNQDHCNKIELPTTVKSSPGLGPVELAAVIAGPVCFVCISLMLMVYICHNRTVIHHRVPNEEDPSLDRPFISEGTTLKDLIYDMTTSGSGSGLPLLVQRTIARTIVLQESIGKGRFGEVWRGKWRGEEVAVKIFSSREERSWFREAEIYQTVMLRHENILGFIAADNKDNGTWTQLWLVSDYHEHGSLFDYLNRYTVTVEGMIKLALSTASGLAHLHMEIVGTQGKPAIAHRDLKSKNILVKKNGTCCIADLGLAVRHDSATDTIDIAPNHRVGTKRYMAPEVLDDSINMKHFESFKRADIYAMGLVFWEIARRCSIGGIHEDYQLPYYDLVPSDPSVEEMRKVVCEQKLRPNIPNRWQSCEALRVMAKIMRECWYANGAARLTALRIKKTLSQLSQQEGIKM
Protocol: as §3

ROR2 = molecular target: T6, ROR2 (Homo sapiens, UniProt Q01974); test: Cell-free kinase panel (Kinexus); format: biochemical; settings: 10 µM
T6 construct: purchased Kinexus, Canada (screening service)
Protocol: as §3

SRC = molecular target: T7, SRC (Homo sapiens, UniProt P12931); test: Cell-free kinase panel (Kinexus); format: biochemical; settings: 10 µM
T7 construct: purchased Kinexus, Canada (screening service)
Protocol: as §3

TAK1 = molecular target: T8, TAK1 (Homo sapiens, UniProt O43318); test: Cell-free kinase panel (Kinexus); format: biochemical; settings: 10 µM
T8 construct: purchased Kinexus, Canada (screening service)
T8 sequence (O43318 1-303 limits assumed): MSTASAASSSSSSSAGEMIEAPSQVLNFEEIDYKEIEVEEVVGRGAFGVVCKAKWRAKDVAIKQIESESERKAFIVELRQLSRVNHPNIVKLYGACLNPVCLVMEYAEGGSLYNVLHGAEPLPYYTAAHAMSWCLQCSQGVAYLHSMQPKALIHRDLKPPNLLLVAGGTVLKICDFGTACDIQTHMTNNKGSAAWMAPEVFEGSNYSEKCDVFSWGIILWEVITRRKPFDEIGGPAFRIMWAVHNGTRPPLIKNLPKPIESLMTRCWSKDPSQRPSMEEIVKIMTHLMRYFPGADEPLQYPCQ
Protocol: as §3

CAMKK2 = molecular target: T9, CAMKK2 (Homo sapiens, UniProt Q96RR4); test: Cell-free kinase panel (Kinexus); format: biochemical
T9 construct: purchased Kinexus, Canada (screening service)
Protocol: as §3

DDR1 = molecular target: T10, DDR1 (Homo sapiens, UniProt Q08345); test: Cell-free kinase panel (Kinexus); format: biochemical; settings: 10 µM
T10 construct: purchased Kinexus, Canada (screening service)
Protocol: as §3

PRK1 = molecular target: T11, PRK1 (Homo sapiens, UniProt Q16512); test: Cell-free kinase panel (Kinexus); format: biochemical; settings: 10 µM
T11 construct: purchased Kinexus, Canada (screening service)
T11 sequence (Q16512 whole entry, species assumed): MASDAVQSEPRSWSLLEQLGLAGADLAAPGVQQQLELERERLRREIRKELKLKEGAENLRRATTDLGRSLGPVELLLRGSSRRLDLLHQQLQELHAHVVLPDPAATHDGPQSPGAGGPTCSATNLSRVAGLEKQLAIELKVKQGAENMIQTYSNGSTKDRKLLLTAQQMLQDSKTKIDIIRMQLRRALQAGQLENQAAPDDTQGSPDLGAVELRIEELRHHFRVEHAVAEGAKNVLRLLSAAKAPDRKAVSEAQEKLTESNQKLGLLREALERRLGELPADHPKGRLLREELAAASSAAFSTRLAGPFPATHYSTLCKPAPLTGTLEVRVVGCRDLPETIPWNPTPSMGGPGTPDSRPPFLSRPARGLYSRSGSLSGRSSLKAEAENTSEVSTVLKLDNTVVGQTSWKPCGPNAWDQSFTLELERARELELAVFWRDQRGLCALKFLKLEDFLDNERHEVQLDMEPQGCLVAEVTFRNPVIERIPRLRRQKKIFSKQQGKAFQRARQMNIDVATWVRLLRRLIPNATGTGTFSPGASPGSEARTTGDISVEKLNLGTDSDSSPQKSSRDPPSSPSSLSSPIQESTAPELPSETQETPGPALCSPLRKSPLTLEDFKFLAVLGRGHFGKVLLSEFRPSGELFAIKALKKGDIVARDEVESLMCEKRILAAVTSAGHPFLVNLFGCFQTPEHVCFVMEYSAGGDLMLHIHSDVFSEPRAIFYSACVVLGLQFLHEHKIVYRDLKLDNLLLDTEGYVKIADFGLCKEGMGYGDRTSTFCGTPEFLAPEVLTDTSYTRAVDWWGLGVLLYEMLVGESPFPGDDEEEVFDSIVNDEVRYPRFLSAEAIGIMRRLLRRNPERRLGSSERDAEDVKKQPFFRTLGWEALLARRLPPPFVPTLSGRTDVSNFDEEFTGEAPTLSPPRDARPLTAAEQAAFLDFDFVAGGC
Protocol: as §3

[4] = molecular target: T12, recombinant human AMPK α1β1γ1 (Homo sapiens, UniProt P54619); test: In vitro AMP kinase assay (pACC ELISA), α1β1γ1; format: biochemical
T12 construct: purchased SignalChem P47-10H-05/P48-10H-05 (for all four isozymes together); host or cells: baculovirus expression
T12 sequence (P54619 whole entry): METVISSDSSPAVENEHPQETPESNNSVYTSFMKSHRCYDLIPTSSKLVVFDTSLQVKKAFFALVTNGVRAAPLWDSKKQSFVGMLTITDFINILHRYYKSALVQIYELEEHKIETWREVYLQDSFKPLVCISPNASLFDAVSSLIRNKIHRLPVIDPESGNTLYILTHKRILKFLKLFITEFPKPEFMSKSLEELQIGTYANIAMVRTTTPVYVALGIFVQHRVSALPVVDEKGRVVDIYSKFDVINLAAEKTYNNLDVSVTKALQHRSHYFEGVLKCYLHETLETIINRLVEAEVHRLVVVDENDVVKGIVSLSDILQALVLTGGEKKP
T12 sequence (Q13131 whole entry partner): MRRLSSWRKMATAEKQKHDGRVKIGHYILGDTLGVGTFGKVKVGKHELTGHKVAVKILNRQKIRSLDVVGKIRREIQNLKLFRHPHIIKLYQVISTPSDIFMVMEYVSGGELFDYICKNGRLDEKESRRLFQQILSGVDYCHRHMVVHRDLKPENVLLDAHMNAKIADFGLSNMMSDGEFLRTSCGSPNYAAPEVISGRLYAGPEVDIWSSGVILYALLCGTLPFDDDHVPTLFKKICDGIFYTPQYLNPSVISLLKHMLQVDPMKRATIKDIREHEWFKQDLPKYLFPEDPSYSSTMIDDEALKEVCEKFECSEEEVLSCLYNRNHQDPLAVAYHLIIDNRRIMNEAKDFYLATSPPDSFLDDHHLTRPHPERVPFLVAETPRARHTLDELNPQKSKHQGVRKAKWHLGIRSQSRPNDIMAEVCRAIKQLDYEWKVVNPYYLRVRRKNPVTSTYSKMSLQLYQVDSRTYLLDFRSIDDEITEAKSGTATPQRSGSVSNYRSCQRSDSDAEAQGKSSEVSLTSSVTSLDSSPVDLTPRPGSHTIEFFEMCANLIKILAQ
T12 sequence (Q9Y478 whole entry partner): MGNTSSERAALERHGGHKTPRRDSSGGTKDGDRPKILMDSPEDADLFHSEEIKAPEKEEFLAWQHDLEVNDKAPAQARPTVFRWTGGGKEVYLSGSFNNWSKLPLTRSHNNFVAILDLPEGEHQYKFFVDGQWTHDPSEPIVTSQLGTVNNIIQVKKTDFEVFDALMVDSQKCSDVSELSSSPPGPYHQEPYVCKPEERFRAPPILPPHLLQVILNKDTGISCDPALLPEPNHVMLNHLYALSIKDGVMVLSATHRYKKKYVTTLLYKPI
From the text: as §1, §2

[5] = test system: panel of 100 protein kinases; test: Cell-free kinase panel (Kinexus), whole panel; format: biochemical; settings: 10 µM
Protocol: as §3

Adenylate kinase = test: AK activity assay kit; format: biochemical
[6] = molecular target: human recombinant AMPK α2β1γ1 (Homo sapiens, UniProt P54619); test: In vitro AMP kinase assay (pACC ELISA), α2β1γ1; format: biochemical; design: purchased SignalChem P47-10H-05/P48-10H-05 (for all four isozymes together); host or cells: baculovirus expression
Sequence of human recombinant AMPK α2β1γ1 (P54619 whole entry): as the sequence (P54619 whole entry) above
Sequence of human recombinant AMPK α2β1γ1 (P54646 whole entry partner): as the sequence (P54646 whole entry partner) above
Sequence of human recombinant AMPK α2β1γ1 (Q9Y478 whole entry partner): as the sequence (Q9Y478 whole entry partner) above
From the text: as §1, §2

AMPK = test: Cell based ELISA (pAMPK/pACC) in primary rat hepatocytes
Protocol: Primary rat hepatocytes were isolated by collagenase (type4, Invitrogen: Cat# 17104-019) digestion as described previously. Digested cells were suspended in DMEM supplemented with 10% FBS. Cells were seeded into 96-well plate (20,000 cells per well) pre-coated with collagen (2 mg/ml). As the cells were metabolically active, medium was changed after cells have attached and allowed to incubate overnight before performing cell based assay.
Approximately 40,000 cells per well were seeded into a 96 well plate (Biofil, cat# TCP011096) and incubated overnight at 37 °C and 5% CO2. After the seeded cells reached 80% confluence, cells were treated with Activator-3 with different working concentrations and 500 μM AICAR (Caymen chemicals, cat# 10010241-10) and incubated for 30 min to 2 h (depending upon the primary antibody used) at 37 °C and 5% CO2. Medium was aspirated and fixed with 4% of formaldehyde solution (diluted in 1X PBS) incubated for 1 h at 4 °C on shaker. Cells were washed with tween 20 (diluted in 1X PBS) on shaker for 5 minutes at room temperature (3 times). […] To quantify the bound primary antibody, cells were probed with a HRP conjugated secondary anti-rabbit antibody (1:2000 dilution, Bio-Rad; Cat# 170-6515) diluted in 1X PBST and incubated 2 h at RT on rocker. […] This reaction is stopped by adding 2 N H2SO4 and plate was immediately read at 450 nm using UV–Vis Spectrophotometer.

[7] = Activator-3 1 nM to 10 μM with 100 µM AMP

T1 sequence (Q9UGJ0 whole entry): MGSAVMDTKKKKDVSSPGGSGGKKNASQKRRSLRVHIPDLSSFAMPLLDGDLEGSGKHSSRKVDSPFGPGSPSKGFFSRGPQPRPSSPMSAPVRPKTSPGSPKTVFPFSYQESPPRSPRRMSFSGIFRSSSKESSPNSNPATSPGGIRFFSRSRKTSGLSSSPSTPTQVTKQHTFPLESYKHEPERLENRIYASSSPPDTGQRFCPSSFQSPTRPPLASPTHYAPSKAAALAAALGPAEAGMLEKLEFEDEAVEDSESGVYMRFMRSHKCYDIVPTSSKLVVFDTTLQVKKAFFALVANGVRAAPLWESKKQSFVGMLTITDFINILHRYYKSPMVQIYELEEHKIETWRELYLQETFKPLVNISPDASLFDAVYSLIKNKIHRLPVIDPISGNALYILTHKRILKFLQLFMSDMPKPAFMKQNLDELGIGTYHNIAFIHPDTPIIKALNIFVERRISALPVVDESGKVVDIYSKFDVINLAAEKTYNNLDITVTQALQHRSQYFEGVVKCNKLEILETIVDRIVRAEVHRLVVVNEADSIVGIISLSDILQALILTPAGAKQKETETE
T1 sequence (P54646 whole entry partner): as the sequence (P54646 whole entry partner) above
T1 sequence (O43741 whole entry partner): as the sequence (O43741 whole entry partner) above

## O=C(O)Cc1csc(Nc2ccc(C(F)(F)F)cc2)n1 [Activator-3, 2-[2-(4-(trifluoromethyl)phenylamino)thiazol-4-yl]acetic acid]
[1]; [7]
  change of AMPK activity stimulated by 100 µM AMP: minimal decrease
[1]; read-out: EC50 allosteric activation hα2β2γ2
  pEC50: ~7.59
[2]
  activation of AMPK: 30–40%
[3]; co-treatment Activator-3 and 100 µM AMP
  increase of AMPK activity over 100 µM AMP alone: > 30%
[3]; read-out: EC50 allosteric activation hα2β2γ3
  pEC50: ~8.40
LRRK2
  activity change: −34%
PAK1
  activity change: −42%
ALK5
  activity change: −61%
ROR2
  activity change: −35%
SRC
  activity change: −71%
TAK1
  effect on kinase activity: not affected
CAMKK2
  inhibition at 10 µM: 36%
DDR1
  activity change: −79%
PRK1
  activity change: −36%
[4]; ATP 2 mM vs 20 µM, Activator-3 0–1 µM
  cooperativity of AMPK activation at high ATP: does not exhibit co-operative binding
[4]; [7]
  reduction of AMPK activity stimulated by 100 µM AMP: ~ 50%
[4]; read-out: EC50 allosteric activation hα1β1γ1
  pEC50: ~7.42
[5]
  effect on kinase activity, majority of panel: not affected
Adenylate kinase; 1 µM
  effect on Adenylate kinase activity: minimally affected
Adenylate kinase; ≤10 µM
  effect on Adenylate kinase activity: unaffected
[6]; [7]
  reduction of AMPK activity stimulated by 100 µM AMP: ~ 50%
[6]; read-out: EC50 allosteric activation hα2β1γ1
  pEC50: ~7.64
AMPK
  pEC50: ~7.55
